How the values were obtained:
[1] = Pharmacokinetic study of vaginal rings in women (serum levels by radioimmunoassay and LC/MS); type: in vivo
Description: A pharmacokinetic study was conducted abroad in two clinics. Radioimmunoassay and liquid chromatography/mass spectroscopic method (LC/MS) were used to measure the serum levels of CDB-2914 and its immunoreactive metabolites. […] After insertion of the ring into the subjects, CDB-2914 was absorbed into the blood stream, increased continuously and reached a plateau at approximately 7 days post-insertion (2-3 ng/mL). Serum levels decreased upon removal of ring at Day 29 (See FIGS. 5A and 5B).

Water solubility = type: physicochemical
[2] = In vitro release rate from vaginal rings; type: physicochemical; settings: for in vitro release rate: vaginal ring, 20% load W/W, redistilled water, 37 C
Description: Thread was used to suspend the rings prepared in example 1 individually in 500 mL wide mouth polyethylene bottles with screw caps. 400 mL of redistilled water was added, and the bottles were placed in a shaking water bath at 37 C. The bath was set to make 100 one-inch strokes per minute. The bathing solution was changed every 24 hours. The CDB-2914 concentration in the aqueous medium was measured via HPLC to determine the release rate of CDB-2914.
Using the same in vitro release rate analysis, vaginal rings were prepared containing either CDB-2914 (20% load, W/W) or mifepristone (20% load, W/W) with several different diameters of silicone tubes, and with tubes containing 18% ethylene vinyl acetate (EVA) as a rate-limiting layer. The rings were prepared by mixing CDB-2914 in a silicone elastomer matrix that was filled into a silicone tube. Upon polymerization, tube was cut into a 16 cm length and the two ends were joined with medical adhesive to form a ring. This vaginal ring has an inner layer of silicone rubber and active agent, and an outer, rate limiting layer. With a silicone tube containing 18% EVA, CDB-2914 was released at the rate of about 96 μg/ring/day, whereas the release of mifepristone was negligible. Using silicone tube C, CDB-2914 was diffused out at more than a 3-fold higher rate than mifepristone (160 μg/ring/day vs. 48 μg/ring/day).

[3] = silicone tube containing 18% EVA as rate-limiting layer

SMILES	serum levels upon removal of ring ([1]; ring removed at Day 29)	bursting release immediately after insertion of the rings ([1]; vaginal ring)	serum concentration compared to Nestorone (NES) ([1]; vaginal ring)	time to reach serum plateau ([1]; vaginal ring)	serum level at plateau ([1]; vaginal ring, plateau at approximately 7 days post-insertion) [ng/mL]	water solubility (Water solubility)	release rate relative to mifepristone ([2]; silicone tube C) [fold]	in vitro release rate ([2]; silicone tube C) [μg/ring/day]	in vitro release rate [2, 3]
CC(=O)O[C@]1(C(C)=O)CC[C@H]2[C@@H]3CCC4=CC(=O)CCC4=C3[C@@H](c3ccc(N(C)C)cc3)C[C@@]21C [CDB-2914, 17α-acetoxy-11β-(4-N,N-dimethylaminophenyl)-19-norpregna-4,9-diene-3,20-dione]	decreased	No bursting release	higher than that of Nestorone	approximately 7 days post-insertion	2 to 3	not water soluble	> 3	160	about 96 μg/ring/day
CC#C[C@]1(O)CC[C@H]2[C@@H]3CCC4=CC(=O)CCC4=C3[C@@H](c3ccc(N(C)C)cc3)C[C@@]21C [mifepristone, reference compound]	–	–	–	–	–	–	–	48	negligible
